Experimental data reported in article PMC8800111 (The Journal of Biological Chemistry, 2021).

What was measured:
Type in all cases: cell-based
[1] = target: proteins of U3A human fibrosarcoma cells (4462 proteins detected) (Homo sapiens, UniProt Q9UK41); settings: protein VPS28; U3A cells
[2] = target: proteins of U3A human fibrosarcoma cells (4462 proteins detected) (Homo sapiens, UniProt Q6PD74); settings: protein AAGAB; U3A cells
[3] = target: proteins of U3A human fibrosarcoma cells (4462 proteins detected) (Homo sapiens, UniProt O15400); settings: protein STX7; U3A cells
[4] = target: proteins of U3A human fibrosarcoma cells (4462 proteins detected) (Homo sapiens, UniProt P06733); settings: protein ENO1; U3A, 10 μM, 2 h
[5] = target: proteins of U3A human fibrosarcoma cells (4462 proteins detected) (Homo sapiens, UniProt P52823); settings: protein STC1; U3A, 10 μM, 2 h
[6] = target: proteins of U3A human fibrosarcoma cells (4462 proteins detected) (Homo sapiens, UniProt Q9NVU7); settings: protein SDAD1; soluble abundance after heat, U3A cells
[7] = target: proteins of U3A human fibrosarcoma cells (4462 proteins detected) (Homo sapiens, UniProt O95453); settings: protein PARN; U3A cells
[8] = target: proteins of U3A human fibrosarcoma cells (4462 proteins detected) (Homo sapiens, UniProt P50402); settings: protein EMD; soluble abundance after heat, U3A cells
[9] = target: proteins of U3A human fibrosarcoma cells (4462 proteins detected) (Homo sapiens, UniProt Q32P44); settings: protein EML3, U3A cells
[10] = target: proteins of U3A human fibrosarcoma cells (4462 proteins detected) (Homo sapiens, UniProt Q86TU7); settings: protein SETD3; U3A cells
[11] = target: proteins of U3A human fibrosarcoma cells (4462 proteins detected) (Homo sapiens, UniProt Q9UNZ2); settings: protein NSFL1C, U3A cells
[12] = target: proteins of U3A human fibrosarcoma cells (4462 proteins detected) (Homo sapiens, UniProt Q96BP2); settings: protein CHCHD1; soluble abundance after heat, U3A cells
[13] = target: proteins of U3A human fibrosarcoma cells (4462 proteins detected) (Homo sapiens, UniProt Q9Y3D3); settings: protein MRPS16; U3A, 10 μM, 2 h
[14] = target: proteins of U3A human fibrosarcoma cells (4462 proteins detected) (Homo sapiens, UniProt Q8NI22); settings: protein MCFD2, U3A cells
[15] = target: proteins of U3A human fibrosarcoma cells (4462 proteins detected) (Homo sapiens, UniProt Q6ZQQ6); settings: protein WDR87; U3A, 10 μM, 2 h
[16] = target: proteins of U3A human fibrosarcoma cells (4462 proteins detected) (Homo sapiens, UniProt Q6SPF0); settings: protein SAMD1; soluble abundance after heat, U3A cells
[17] = target: proteins of U3A human fibrosarcoma cells (4462 proteins detected) (Homo sapiens, UniProt P61313); settings: protein RPL15; U3A cells
[18] = target: proteins of U3A human fibrosarcoma cells (4462 proteins detected) (Homo sapiens, UniProt Q9NPF4); settings: protein OSGEP; soluble abundance after heat, U3A cells
[19] = target: proteins of U3A human fibrosarcoma cells (4462 proteins detected) (Homo sapiens, UniProt Q92530); settings: protein PSMF1; soluble abundance after heat, U3A cells
[20] = target: proteins of U3A human fibrosarcoma cells (4462 proteins detected) (Homo sapiens, UniProt Q8IWX8); settings: protein CHERP; soluble abundance after heat, U3A cells
[21] = target: proteins of U3A human fibrosarcoma cells (4462 proteins detected) (Homo sapiens, UniProt O95487); settings: protein SEC24B, U3A cells
[22] = target: proteins of U3A human fibrosarcoma cells (4462 proteins detected) (Homo sapiens, UniProt Q9NRL3); settings: protein STRN4; U3A cells
[23] = target: proteins of U3A human fibrosarcoma cells (4462 proteins detected) (Homo sapiens, UniProt Q9UHN1); settings: protein POLG2; soluble abundance after heat, U3A cells
[24] = target: proteins of U3A human fibrosarcoma cells (4462 proteins detected) (Homo sapiens, UniProt Q9Y3B4); settings: protein SF3B6; soluble abundance after heat, U3A cells
[25] = target: proteins of U3A human fibrosarcoma cells (4462 proteins detected) (Homo sapiens, UniProt O76003); settings: protein GLRX3; U3A cells
[26] = target: proteins of U3A human fibrosarcoma cells (4462 proteins detected) (Homo sapiens, UniProt Q8N163); settings: protein CCAR2; U3A cells
[27] = target: proteins of U3A human fibrosarcoma cells (4462 proteins detected) (Homo sapiens, UniProt Q8N9N8); settings: protein EIF1AD; U3A, 10 μM, 2 h
[28] = target: proteins of U3A human fibrosarcoma cells (4462 proteins detected) (Homo sapiens, UniProt P29353); settings: protein SHC1; U3A cells
[29] = target: proteins of U3A human fibrosarcoma cells (4462 proteins detected) (Homo sapiens, UniProt O15498); settings: protein YKT6; U3A, 10 μM, 2 h

proteins of U3A human fibrosarcoma cells (4462 proteins detected) (Homo sapiens, UniProt Q8N163), sequence (Q8N163 whole entry): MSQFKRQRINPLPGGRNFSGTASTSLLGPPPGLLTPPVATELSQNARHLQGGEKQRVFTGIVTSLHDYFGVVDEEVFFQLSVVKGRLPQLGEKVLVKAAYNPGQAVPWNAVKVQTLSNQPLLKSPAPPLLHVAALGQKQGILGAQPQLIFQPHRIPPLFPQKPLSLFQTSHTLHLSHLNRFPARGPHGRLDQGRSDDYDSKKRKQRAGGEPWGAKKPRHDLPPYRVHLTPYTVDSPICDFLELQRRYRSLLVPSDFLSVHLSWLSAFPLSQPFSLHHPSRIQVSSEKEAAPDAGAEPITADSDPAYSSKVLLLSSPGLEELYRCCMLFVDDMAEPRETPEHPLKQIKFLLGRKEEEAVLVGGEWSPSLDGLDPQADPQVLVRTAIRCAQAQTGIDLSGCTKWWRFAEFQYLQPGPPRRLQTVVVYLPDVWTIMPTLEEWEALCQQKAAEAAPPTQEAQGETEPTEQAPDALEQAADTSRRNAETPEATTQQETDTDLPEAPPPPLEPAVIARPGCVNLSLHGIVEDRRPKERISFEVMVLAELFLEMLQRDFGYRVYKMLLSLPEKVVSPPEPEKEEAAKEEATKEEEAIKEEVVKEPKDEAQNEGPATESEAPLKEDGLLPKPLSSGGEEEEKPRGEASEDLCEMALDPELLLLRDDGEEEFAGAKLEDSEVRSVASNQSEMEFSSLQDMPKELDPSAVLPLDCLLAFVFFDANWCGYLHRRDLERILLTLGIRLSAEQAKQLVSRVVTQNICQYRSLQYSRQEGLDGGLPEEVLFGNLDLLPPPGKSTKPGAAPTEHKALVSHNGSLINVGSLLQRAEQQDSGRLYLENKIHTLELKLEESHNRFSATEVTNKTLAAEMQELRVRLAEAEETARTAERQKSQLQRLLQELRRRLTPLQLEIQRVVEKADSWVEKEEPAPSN
proteins of U3A human fibrosarcoma cells (4462 proteins detected) (Homo sapiens, UniProt P50402), sequence (P50402 whole entry): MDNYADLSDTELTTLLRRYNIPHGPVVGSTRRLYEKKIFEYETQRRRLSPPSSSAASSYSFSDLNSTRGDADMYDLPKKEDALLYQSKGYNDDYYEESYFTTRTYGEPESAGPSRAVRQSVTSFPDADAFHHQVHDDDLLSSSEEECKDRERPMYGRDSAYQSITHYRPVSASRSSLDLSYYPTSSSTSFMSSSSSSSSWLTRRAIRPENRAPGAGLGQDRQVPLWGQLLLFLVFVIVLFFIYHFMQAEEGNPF
proteins of U3A human fibrosarcoma cells (4462 proteins detected) (Homo sapiens, UniProt Q8NI22), sequence (Q8NI22 27-146): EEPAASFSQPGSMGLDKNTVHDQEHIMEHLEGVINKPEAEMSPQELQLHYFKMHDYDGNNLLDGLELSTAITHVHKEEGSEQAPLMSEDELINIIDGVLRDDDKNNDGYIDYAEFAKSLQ
proteins of U3A human fibrosarcoma cells (4462 proteins detected) (Homo sapiens, UniProt O76003), sequence (O76003 whole entry): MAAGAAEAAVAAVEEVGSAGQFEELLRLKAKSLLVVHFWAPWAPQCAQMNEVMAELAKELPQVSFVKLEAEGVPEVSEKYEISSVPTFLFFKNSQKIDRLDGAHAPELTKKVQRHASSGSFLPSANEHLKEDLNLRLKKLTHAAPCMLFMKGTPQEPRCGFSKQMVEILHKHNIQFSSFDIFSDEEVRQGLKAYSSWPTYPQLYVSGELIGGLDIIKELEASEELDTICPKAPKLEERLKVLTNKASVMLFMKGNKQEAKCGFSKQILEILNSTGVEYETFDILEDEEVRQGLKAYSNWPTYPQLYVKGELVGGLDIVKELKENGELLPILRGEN
proteins of U3A human fibrosarcoma cells (4462 proteins detected) (Homo sapiens, UniProt Q6ZQQ6), sequence (Q6ZQQ6 whole entry): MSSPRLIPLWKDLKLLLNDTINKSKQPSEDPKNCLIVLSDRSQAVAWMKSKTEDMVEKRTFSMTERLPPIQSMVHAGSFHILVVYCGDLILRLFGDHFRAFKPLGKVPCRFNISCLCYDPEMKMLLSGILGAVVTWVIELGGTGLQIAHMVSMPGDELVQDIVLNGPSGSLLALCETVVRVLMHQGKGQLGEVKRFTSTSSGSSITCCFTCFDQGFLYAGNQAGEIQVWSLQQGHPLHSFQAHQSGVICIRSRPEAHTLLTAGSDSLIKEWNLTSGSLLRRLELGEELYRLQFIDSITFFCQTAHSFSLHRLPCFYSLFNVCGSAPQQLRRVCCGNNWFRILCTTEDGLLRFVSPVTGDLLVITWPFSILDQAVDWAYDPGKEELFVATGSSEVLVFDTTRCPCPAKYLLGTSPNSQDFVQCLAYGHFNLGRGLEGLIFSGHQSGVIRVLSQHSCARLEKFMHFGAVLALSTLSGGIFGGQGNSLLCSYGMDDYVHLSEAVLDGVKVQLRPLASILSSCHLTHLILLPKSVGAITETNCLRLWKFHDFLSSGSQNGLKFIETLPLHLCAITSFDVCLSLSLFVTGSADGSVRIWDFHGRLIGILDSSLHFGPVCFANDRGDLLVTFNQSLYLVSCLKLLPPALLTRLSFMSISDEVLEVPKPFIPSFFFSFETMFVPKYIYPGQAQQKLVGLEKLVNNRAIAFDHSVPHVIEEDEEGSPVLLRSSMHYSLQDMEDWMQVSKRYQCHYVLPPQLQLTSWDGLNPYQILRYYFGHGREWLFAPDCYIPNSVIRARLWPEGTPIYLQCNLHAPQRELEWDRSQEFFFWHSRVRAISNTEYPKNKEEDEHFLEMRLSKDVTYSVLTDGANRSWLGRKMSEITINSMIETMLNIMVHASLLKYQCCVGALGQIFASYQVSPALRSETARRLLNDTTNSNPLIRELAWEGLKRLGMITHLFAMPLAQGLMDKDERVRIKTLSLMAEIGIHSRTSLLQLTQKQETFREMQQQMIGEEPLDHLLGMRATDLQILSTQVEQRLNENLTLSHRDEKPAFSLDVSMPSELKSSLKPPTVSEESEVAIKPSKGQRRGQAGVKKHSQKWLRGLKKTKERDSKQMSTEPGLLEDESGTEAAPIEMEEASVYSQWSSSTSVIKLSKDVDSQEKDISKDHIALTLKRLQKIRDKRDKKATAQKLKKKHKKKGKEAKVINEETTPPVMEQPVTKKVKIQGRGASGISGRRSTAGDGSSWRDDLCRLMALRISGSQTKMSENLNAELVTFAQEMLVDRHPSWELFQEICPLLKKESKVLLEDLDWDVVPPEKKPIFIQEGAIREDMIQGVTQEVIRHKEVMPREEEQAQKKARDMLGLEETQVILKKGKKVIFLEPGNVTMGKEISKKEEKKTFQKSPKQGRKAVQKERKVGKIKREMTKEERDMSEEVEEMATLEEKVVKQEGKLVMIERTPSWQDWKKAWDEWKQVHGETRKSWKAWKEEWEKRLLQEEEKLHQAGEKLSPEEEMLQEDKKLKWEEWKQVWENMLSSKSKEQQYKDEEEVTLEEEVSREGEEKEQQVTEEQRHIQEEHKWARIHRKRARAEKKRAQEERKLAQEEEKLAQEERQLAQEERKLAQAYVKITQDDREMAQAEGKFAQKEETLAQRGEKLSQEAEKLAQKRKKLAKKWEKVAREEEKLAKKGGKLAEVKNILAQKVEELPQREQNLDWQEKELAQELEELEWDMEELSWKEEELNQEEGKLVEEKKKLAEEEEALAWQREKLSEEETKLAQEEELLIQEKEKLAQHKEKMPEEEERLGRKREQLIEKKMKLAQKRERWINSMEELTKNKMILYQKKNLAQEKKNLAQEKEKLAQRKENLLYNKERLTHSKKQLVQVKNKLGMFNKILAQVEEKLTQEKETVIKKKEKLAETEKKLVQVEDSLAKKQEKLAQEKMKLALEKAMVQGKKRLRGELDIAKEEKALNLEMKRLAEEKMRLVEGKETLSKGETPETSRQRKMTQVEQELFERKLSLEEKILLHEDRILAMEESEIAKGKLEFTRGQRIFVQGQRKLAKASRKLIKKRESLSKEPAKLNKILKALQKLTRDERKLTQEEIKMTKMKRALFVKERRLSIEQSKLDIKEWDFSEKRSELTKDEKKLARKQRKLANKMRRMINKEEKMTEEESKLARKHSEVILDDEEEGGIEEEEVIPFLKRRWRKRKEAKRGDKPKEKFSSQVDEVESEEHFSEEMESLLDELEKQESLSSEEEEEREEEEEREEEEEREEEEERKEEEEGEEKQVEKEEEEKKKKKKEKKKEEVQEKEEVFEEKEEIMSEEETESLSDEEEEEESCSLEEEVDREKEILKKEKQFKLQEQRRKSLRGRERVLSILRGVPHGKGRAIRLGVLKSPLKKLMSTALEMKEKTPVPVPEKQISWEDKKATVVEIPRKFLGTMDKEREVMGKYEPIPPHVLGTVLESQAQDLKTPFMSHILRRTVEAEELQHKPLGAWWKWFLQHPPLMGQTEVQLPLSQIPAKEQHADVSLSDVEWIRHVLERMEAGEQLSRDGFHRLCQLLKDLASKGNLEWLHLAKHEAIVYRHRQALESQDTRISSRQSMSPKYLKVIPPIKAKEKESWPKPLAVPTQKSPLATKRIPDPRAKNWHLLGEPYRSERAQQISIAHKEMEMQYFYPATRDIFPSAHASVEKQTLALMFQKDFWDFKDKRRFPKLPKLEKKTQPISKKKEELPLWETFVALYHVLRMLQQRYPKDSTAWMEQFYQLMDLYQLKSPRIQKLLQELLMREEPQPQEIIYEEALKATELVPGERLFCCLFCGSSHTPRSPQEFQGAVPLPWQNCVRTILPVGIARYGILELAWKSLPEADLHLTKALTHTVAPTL
proteins of U3A human fibrosarcoma cells (4462 proteins detected) (Homo sapiens, UniProt Q8N9N8), sequence (Q8N9N8 whole entry): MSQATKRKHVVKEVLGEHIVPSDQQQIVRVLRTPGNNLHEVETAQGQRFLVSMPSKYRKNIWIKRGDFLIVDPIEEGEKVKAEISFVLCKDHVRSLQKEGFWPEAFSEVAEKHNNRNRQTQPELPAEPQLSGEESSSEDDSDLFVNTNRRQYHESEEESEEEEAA
proteins of U3A human fibrosarcoma cells (4462 proteins detected) (Homo sapiens, UniProt O15400), sequence (O15400 whole entry): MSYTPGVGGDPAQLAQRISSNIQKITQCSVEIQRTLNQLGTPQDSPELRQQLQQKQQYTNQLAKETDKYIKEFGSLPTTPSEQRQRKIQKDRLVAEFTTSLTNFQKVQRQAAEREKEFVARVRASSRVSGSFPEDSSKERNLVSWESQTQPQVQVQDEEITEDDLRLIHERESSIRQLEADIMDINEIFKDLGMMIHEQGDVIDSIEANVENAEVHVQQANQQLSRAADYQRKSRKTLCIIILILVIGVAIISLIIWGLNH

CCc1nc(N)nc(N)c1-c1ccc(Cl)cc1 [pyrimethamine]
Log2 (PYR/DMSO) [1]: 0.21
Log2 (PYR/DMSO) [2]: 0.18
Log2 (PYR/DMSO) [3]: 0.18
Log2 (PYR/DMSO), ENO1 [4]: -0.17
Log2 (PYR/DMSO), STC1 [5]: 0.25
Log2 (PYR/DMSO) [6]: 0.15
Log2 (PYR/DMSO) [7]: 0.21
Log2 (PYR/DMSO) [8]: 0.15
Log2 (PYR/DMSO) [9]: -0.05
Log2 (PYR/DMSO) [10]: 0.20
Log2 (PYR/DMSO) [11]: -0.04
Log2 (PYR/DMSO) [12]: 0.15
Log2 (PYR/DMSO), MRPS16 [13]: 0.24
Log2 (PYR/DMSO) [14]: -0.05
Log2 (PYR/DMSO), WDR87 [15]: -0.16
Log2 (PYR/DMSO) [16]: 0.15
Log2 (PYR/DMSO) [17]: 0.20
Log2 (PYR/DMSO) [18]: 0.14
Log2 (PYR/DMSO) [19]: 0.13
Log2 (PYR/DMSO) [20]: 0.14
Log2 (PYR/DMSO) [21]: -0.04
Log2 (PYR/DMSO) [22]: 0.16
Log2 (PYR/DMSO) [23]: 0.15
Log2 (PYR/DMSO) [24]: 0.14
Log2 (PYR/DMSO) [25]: 0.16
Log2 (PYR/DMSO) [26]: 0.18
Log2 (PYR/DMSO), EIF1AD [27]: -0.14
Log2 (PYR/DMSO) [28]: 0.19
Log2 (PYR/DMSO), YKT6 [29]: 0.27
